For this test, the target named is T1, AKT2 (Homo sapiens, UniProt P31751).
T1 construct: purchased Promega
In words: In vitro ADP-Glo kinase assay, AKT2. The format is biochemical. The procedure: Subsequently, each well was added with ADP-Glo reagent and incubated for another 40 min. After completion of the kinase reaction, each well was added with kinase activity detection reagent and then incubated for 30 min. Liquid was dispensed with I.DOT (Dispendix, Stuttgart, Germany). Luminescence was measured on a Centro LB 960 microplate luminometer (Berthold Technologies).
In general terms: ADP-Glo turns the ADP formed in a reaction into a luminescent signal.

SMILES strings stand for the structures.

For orientation: IC50 means the concentration at which inhibition is half-maximal. Read a low IC50 as greater potency in that assay.

T1 sequence (P31751 whole entry): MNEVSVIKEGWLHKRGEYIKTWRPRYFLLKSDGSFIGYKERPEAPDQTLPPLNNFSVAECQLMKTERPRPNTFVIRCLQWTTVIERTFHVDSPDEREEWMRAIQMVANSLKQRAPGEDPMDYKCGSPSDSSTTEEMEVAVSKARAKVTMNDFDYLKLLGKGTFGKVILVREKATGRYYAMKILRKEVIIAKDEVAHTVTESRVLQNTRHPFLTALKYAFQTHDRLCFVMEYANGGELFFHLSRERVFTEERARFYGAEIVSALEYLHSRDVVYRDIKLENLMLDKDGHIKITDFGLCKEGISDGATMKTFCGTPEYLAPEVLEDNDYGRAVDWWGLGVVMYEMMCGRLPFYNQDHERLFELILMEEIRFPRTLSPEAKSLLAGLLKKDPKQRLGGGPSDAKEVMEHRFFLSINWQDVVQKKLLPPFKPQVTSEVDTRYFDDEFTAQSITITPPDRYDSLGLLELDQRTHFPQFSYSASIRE

For the compound `COc1ccc(C[C@H]2C(=O)N[C@@H](C)C(=O)N(C)[C@H]3Cc4ccc(cc4)Oc4cc(ccc4O[C@@H]4O[C@H](CO)[C@@H](O)[C@H](O)[C@H]4O)C[C@@H](C(=O)N[C@H](C)C(=O)N[C@@H](C)C(=O)N2C)N(C)C3=O)cc1` [DBG, deoxybouvardin glucoside], the IC50 (ADP-Glo, AKT2 5 ng, RT, 60 min, luminescence, n=3) stood at 0.0112 µM. Also, under “DBG 3, 6, 12 nM”, the “kinase activity, in words” value was “significantly inhibited”.

The values above are taken from PMC11579512, “Deoxybouvardin-glucoside induces apoptosis in non-small cell lung cancer cells by targeting EGFR/MET and AKT signaling pathway” (EXCLI Journal, 2024).
